≈ marks a conversion by molar mass, not a printed value.
Columns and labels:
[1] = Volume of distribution at steady state in Sprague-Dawley rat at 0.5 mg/kg, iv; type: ADME, organism-based; design: dose 0.5 mg/kg, route intravenous; details: in vivo, read-out: Vdss
Cannabinoid receptor 1 [2] = biological target: T1, Cannabinoid receptor 1 (Homo sapiens, UniProt P21554); assay: Agonist activity at human CB1 receptor assessed as inhibition of forskolin-induced increase in intracellular cAMP relative to CP-55940; type: functional, cell-based
human MDR1 (P-gp) = assay: Apparent permeability across pig LLC-PK1 cells transfected with human MDR1 at 5 uM in presence of 0.1% BSA; type: ADME, cell-based, Sus scrofa
[3] = biological target: T2, 5-hydroxytryptamine receptor 2B (Homo sapiens, UniProt P41595); assay: Inhibition of 5HT2B receptor
[4] = biological target: Voltage-gated inwardly rectifying potassium channel KCNH2 (Homo sapiens, UniProt Q12809); assay: Displacement of radiolabeled dofetilide from human ERG
[5] = Solubility in simulated intestinal fluid; type: physicochemical
Cannabinoid receptor 1 [6] = biological target: T1, Cannabinoid receptor 1; assay: Agonist activity at human CB1 receptor expressed in insect Sf9 cells assessed as effect on Eu-GTP binding
[7] = biological target: T3, Muscarinic acetylcholine receptor M1 (Homo sapiens, UniProt P11229); assay: Inhibition of muscarinic M1 receptor
T3 sequence (P11229 whole entry): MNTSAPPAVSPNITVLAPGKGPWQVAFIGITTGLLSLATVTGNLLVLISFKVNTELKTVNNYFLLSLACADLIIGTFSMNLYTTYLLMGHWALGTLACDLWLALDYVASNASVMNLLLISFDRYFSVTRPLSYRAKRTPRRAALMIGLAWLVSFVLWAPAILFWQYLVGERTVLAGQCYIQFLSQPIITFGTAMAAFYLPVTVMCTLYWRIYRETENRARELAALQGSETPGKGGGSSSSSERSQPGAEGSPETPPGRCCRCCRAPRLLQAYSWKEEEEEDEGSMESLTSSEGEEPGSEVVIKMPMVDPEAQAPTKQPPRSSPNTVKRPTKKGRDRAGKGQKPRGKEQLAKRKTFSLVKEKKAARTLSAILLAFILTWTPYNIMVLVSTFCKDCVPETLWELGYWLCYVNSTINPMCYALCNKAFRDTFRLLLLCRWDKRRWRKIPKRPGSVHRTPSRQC

Histamine H1 receptor [8] = biological target: T4, Histamine H1 receptor (Homo sapiens, UniProt P35367); assay: Inhibition of histamine H1 receptor
[9] = Solubility in phosphate buffer saline; type: physicochemical; details: phosphate buffered saline
[10] = biological target: T5, Somatostatin receptor type 4 (Homo sapiens, UniProt P31391); assay: Inhibition of sst4 receptor
Substance-P receptor [11] = biological target: T6, Substance-P receptor (Homo sapiens, UniProt P25103); assay: Inhibition of NK1 receptor
[12] = AUC (0 to 24 hrs) in Sprague-Dawley rat at 10 mg/kg, po; type: ADME, organism-based; design: time < 24 hr, dose 10 mg/kg, route oral; details: plasma
LLC-PK1 [13] = assay: Ratio of permeability from basolateral to apical side to apical to basolateral side in pig wild-type LLC-PK1 cells at 5 uM in presence of 0.1% BSA; type: ADME, cell-based, Sus scrofa; details: llc-pk1, 5 µM
[14] = Bioavailability in Sprague-Dawley rat at 10 mg/kg, po; type: ADME, organism-based; details: in vivo
Cannabinoid receptor 1 [15] = biological target: T1, Cannabinoid receptor 1; assay: Agonist activity at human CB1 receptor assessed as inhibition of forskolin-induced increase in intracellular cAMP; type: functional, cell-based
Cannabinoid receptor 2 [16] = biological target: T7, Cannabinoid receptor 2 (Homo sapiens, UniProt P34972); assay: Agonist activity at human CB2 receptor assessed as inhibition of forskolin-induced increase in intracellular cAMP; type: functional, cell-based
[17] = biological target: T2, 5-hydroxytryptamine receptor 2B; assay: Agonist activity at 5HT2B receptor; type: functional
[18] = Inhibition of adrenergic alpha1 receptor
D(2) dopamine receptor [19] = biological target: T8, D(2) dopamine receptor (Homo sapiens, UniProt P14416); assay: Inhibition of dopamine D2 receptor
[20] = Apparent permeability across pig wild-type LLC-PK1 cells at 5 uM in presence of 0.1% BSA; type: ADME, cell-based, Sus scrofa
[21] = Agonist activity at CCR2b receptor; type: functional
[22] = Metabolic stability in rat liver microsome assessed as intrinsic clearance; type: ADME; details: liver microsomes
[23] = biological target: T5, Somatostatin receptor type 4; assay: Agonist activity at sst4 receptor; type: functional
[24] = biological target: T9, 5-hydroxytryptamine receptor 1A (Homo sapiens, UniProt P08908); assay: Agonist activity at 5HT1A receptor; type: functional
T9 sequence (P08908 whole entry): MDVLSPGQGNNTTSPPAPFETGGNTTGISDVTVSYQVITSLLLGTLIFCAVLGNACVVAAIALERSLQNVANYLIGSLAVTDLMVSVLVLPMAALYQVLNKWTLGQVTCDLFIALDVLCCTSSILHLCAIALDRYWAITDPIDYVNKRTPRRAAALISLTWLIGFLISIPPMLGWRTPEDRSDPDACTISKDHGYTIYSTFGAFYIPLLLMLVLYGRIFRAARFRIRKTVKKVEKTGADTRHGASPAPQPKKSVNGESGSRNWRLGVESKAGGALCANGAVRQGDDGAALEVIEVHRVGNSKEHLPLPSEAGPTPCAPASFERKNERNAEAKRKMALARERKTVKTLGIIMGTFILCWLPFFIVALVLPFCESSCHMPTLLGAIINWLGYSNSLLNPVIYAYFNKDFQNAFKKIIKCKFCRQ

LLC-PK1 [25] = assay: Ratio of permeability from basolateral to apical side to apical to basolateral side in pig LLC-PK1 cells expressing human MDR1 at 5 uM in presence of 0.1% BSA; type: ADME, cell-based, Sus scrofa; details: llc-pk1, 5 µM
[26] = biological target: T10, Beta-1 adrenergic receptor (Homo sapiens, UniProt P08588); assay: Inhibition of adrenergic beta-1 receptor
Cannabinoid receptor 1 [27] = biological target: T1, Cannabinoid receptor 1; assay: Agonist activity at human CB1 receptor expressed in insect Sf9 cells assessed as effect on Eu-GTP binding relative to CP-55940
Substance-P receptor [28] = biological target: T6, Substance-P receptor; assay: Agonist activity at NK1 receptor; type: functional
Cannabinoid receptor 2 [29] = biological target: T7, Cannabinoid receptor 2; assay: Agonist activity at human CB2 receptor assessed as inhibition of forskolin-induced increase in intracellular cAMP relative to CP-55940; type: functional, cell-based
[30] = biological target: T3, Muscarinic acetylcholine receptor M1; assay: Agonist activity at muscarinic M1 receptor; type: functional
[31] = Inhibition of CCR2b receptor
Cannabinoid receptor 2 [32] = biological target: T7, Cannabinoid receptor 2; assay: Agonist activity at human CB2 receptor expressed in insect Sf9 cells assessed as effect on Eu-GTP binding relative to CP-55940
[33] = Metabolic stability in human liver microsome assessed as intrinsic clearance; type: ADME; details: liver microsomes
Mu-type opioid receptor [34] = biological target: T11, Mu-type opioid receptor (Homo sapiens, UniProt P35372); assay: Agonist activity at mu opioid receptor; type: functional
[35] = Agonist activity at adrenergic alpha1 receptor; type: functional
[36] = Agonist activity at CXR2 receptor; type: functional
Histamine H1 receptor [37] = biological target: T4, Histamine H1 receptor; assay: Agonist activity at histamine H1 receptor; type: functional
[38] = biological target: T9, 5-hydroxytryptamine receptor 1A; assay: Inhibition of 5HT1A receptor
Mu-type opioid receptor [39] = biological target: T11, Mu-type opioid receptor; assay: Inhibition of mu opioid receptor
[40] = Cmax in Sprague-Dawley rat at 10 mg/kg, po; type: ADME, organism-based; design: dose 10 mg/kg, route oral; details: in vivo
[41] = biological target: T10, Beta-1 adrenergic receptor; assay: Agonist activity at adrenergic beta-1 receptor; type: functional
Cannabinoid receptor 2 [42] = biological target: T7, Cannabinoid receptor 2; assay: Agonist activity at human CB2 receptor expressed in insect Sf9 cells assessed as effect on Eu-GTP binding
[43] = Inhibition of CXR2 receptor
[44] = Half life in Sprague-Dawley rat at 0.5 mg/kg, iv; type: ADME, organism-based; design: dose 0.5 mg/kg, route intravenous; details: in vivo
[45] = Clearance in Sprague-Dawley rat at 0.5 mg/kg, iv; type: ADME, organism-based; design: dose 0.5 mg/kg, route intravenous; details: in vivo
[46] = Solubility in 0.01 N HCl; type: physicochemical
D(2) dopamine receptor [47] = biological target: T8, D(2) dopamine receptor; assay: Agonist activity at dopamine D2 receptor; type: functional

T1 sequence (P21554 whole entry): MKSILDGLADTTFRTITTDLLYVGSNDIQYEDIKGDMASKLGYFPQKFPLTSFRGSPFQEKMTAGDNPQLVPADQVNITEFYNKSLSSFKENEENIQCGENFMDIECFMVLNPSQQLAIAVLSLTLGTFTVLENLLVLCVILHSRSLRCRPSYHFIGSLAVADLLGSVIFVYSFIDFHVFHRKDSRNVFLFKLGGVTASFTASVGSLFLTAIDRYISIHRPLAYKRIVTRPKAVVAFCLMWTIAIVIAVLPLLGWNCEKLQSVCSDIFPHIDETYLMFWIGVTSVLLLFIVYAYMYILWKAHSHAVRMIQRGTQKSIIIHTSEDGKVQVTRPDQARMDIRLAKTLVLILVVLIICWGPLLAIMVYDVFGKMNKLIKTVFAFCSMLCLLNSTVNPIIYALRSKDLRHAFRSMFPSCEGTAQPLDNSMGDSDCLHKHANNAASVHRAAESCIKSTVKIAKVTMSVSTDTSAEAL
T7 sequence (P34972 whole entry): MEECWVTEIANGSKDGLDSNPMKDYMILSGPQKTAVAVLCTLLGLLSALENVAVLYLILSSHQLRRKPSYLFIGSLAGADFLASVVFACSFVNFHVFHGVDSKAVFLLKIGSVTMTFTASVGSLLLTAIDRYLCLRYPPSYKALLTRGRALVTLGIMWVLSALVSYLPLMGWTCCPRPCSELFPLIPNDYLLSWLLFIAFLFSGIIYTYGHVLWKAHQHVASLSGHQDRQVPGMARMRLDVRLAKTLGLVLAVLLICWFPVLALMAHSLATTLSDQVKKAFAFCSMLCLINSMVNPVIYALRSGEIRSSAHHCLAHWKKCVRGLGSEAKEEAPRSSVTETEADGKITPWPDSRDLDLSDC
T5 sequence (P31391 whole entry): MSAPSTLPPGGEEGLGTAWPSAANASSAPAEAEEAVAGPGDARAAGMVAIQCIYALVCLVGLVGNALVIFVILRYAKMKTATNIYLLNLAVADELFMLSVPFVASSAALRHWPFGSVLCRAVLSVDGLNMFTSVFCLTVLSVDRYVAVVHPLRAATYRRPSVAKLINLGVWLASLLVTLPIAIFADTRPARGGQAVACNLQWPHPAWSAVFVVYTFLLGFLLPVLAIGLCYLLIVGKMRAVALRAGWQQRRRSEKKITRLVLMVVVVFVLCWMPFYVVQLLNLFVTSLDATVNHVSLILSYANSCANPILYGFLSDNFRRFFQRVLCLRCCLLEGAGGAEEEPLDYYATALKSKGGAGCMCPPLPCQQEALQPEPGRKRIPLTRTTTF
T11 sequence (P35372 whole entry): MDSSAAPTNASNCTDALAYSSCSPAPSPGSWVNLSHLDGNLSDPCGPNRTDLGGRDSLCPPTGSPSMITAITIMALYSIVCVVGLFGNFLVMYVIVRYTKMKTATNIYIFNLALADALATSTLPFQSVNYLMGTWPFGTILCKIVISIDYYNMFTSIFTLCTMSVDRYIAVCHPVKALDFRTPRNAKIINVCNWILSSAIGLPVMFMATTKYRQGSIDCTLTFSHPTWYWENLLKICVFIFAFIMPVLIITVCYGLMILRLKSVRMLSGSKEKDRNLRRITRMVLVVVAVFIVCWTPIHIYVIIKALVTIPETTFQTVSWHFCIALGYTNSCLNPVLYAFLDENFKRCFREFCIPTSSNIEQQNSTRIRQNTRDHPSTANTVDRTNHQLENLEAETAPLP
T6 sequence (P25103 whole entry): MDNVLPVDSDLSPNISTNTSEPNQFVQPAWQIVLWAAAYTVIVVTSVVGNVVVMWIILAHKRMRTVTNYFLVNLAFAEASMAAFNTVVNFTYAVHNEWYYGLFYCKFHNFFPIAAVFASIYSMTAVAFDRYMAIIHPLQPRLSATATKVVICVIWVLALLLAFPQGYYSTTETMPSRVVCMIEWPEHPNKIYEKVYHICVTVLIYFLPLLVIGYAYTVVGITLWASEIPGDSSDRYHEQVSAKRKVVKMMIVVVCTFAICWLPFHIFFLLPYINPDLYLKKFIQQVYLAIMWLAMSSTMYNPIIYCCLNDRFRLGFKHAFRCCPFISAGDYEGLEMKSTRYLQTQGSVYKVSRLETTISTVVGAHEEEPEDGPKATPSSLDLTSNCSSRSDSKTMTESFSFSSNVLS
T10 sequence (P08588 whole entry): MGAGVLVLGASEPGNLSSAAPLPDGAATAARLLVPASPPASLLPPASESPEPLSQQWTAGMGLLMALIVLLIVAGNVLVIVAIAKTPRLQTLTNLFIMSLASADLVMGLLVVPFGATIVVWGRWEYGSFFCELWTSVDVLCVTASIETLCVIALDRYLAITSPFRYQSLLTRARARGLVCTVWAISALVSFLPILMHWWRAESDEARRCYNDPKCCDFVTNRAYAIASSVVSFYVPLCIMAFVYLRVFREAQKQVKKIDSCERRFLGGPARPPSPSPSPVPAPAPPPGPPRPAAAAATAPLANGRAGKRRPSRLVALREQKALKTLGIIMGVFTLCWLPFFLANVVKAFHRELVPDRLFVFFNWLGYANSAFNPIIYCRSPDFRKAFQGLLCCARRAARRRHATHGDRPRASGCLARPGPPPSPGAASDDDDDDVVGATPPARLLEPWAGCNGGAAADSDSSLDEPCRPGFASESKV
T8 sequence (P14416 whole entry): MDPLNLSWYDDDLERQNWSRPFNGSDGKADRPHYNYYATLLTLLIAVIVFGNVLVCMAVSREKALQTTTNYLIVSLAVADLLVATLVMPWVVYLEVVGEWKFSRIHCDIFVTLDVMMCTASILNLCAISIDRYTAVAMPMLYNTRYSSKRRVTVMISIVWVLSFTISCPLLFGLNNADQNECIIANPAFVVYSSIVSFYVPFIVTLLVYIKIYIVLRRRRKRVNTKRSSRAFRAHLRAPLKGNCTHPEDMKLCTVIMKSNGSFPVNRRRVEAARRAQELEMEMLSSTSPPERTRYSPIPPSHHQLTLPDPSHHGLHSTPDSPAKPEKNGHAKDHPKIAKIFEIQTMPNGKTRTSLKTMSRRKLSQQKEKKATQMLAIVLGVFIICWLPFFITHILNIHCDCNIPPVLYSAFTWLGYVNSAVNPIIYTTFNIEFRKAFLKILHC
T4 sequence (P35367 whole entry): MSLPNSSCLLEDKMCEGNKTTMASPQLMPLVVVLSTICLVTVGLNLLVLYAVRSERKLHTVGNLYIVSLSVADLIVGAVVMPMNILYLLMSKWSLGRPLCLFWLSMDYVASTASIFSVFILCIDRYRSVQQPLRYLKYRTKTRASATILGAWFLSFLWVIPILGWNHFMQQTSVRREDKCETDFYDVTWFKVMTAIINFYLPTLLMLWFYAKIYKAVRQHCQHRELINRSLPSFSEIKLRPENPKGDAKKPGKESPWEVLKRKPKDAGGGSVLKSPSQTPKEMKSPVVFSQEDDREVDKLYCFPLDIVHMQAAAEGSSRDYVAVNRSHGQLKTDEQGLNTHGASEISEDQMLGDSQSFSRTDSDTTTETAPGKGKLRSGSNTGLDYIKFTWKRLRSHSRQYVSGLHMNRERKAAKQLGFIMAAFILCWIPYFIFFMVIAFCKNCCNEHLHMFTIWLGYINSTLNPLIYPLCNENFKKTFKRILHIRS
T2 sequence (P41595 whole entry): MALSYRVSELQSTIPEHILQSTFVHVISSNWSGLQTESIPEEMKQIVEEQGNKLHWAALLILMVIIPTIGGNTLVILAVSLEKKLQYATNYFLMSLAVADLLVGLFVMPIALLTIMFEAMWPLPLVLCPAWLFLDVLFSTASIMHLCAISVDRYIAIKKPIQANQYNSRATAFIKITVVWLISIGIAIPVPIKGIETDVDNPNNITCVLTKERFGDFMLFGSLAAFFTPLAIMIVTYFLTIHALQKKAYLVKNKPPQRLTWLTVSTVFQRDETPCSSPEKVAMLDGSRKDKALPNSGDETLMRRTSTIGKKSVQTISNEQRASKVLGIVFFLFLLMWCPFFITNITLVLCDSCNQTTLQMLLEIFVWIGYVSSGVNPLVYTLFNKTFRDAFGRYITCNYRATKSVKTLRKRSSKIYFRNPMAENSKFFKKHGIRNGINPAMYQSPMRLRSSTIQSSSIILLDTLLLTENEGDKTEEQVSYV

`Fc1ccc(-c2noc(C3CCN(c4cnc5ccc(Cl)cc5c4)CC3)n2)c(Cl)c1` showed a Vd [1] of 0.365 L/kg, an Emax (Cannabinoid receptor 1 [2]) of 19% and a Papp at 5 µM (human MDR1 (P-gp)) of 10.7 ×10⁻⁶ cm/s. It also gave an IC50 [3] of over 50 µM, an IC50 [4] of 0.5 µM and a solubility [5] of 2 µg/mL (≈ 4.51 µM). The EC50 (Cannabinoid receptor 1 [6]) was 1.43 µM, the IC50 [7] was over 50 µM and the IC50 (Histamine H1 receptor [8]) was over 50 µM. The solubility [9] was under 1 µg/mL, the IC50 [10] was over 50 µM and the IC50 (Substance-P receptor [11]) was over 50 µM. It also gave an AUC(0-t) at 24 h [12] of 5240 ng·h/mL, a Ratio (LLC-PK1 [13]) of 0.9 and a bioavailability [14] of 2%. For the same compound, the EC50 (Cannabinoid receptor 1 [15]) was over 2 µM, the EC50 (Cannabinoid receptor 2 [16]) was 0.011 µM and the EC50 [17] was over 50 µM. It also gave an IC50 [18] of over 50 µM, an IC50 (D(2) dopamine receptor [19]) of over 50 µM and a Papp at 5 µM [20] of 9.95 ×10⁻⁶ cm/s. It also gave an EC50 [21] of over 50 µM, a microsomal CLint [22] of 32 µL/min/mg and an EC50 [23] of over 50 µM. For the same compound, the EC50 [24] was over 50 µM, the Ratio (LLC-PK1 [25]) was 0.9 and the IC50 [26] was over 50 µM. For the same compound, the Emax (Cannabinoid receptor 1 [27]) was 55%, the EC50 (Substance-P receptor [28]) was over 50 µM and the Emax (Cannabinoid receptor 2 [29]) was 102%. The EC50 [30] was over 50 µM, the IC50 [31] was over 50 µM and the Emax (Cannabinoid receptor 2 [32]) was 120%. The microsomal CLint [33] was 38 µL/min/mg, the EC50 (Mu-type opioid receptor [34]) was over 50 µM and the EC50 [35] was over 50 µM. The EC50 [36] was over 50 µM, the EC50 (Histamine H1 receptor [37]) was over 50 µM and the IC50 [38] was over 50 µM. For the same compound, the IC50 (Mu-type opioid receptor [39]) was over 50 µM, the Cmax [40] was 682 ng/mL and the EC50 [41] was over 50 µM. It also gave an EC50 (Cannabinoid receptor 2 [42]) of 0.007 µM, an IC50 [43] of over 50 µM and a half-life [44] of 8.9 h. It also gave a clearance [45] of 0.65 mL/min/kg, a solubility [46] of under 1 µg/mL and an EC50 (D(2) dopamine receptor [47]) of over 50 µM.

— ChEMBL document CHEMBL1155906, “Structural modifications of N-arylamide oxadiazoles: Identification of N-arylpiperidine oxadiazoles as potent and selective agonists of CB2” (Bioorg Med Chem Lett, 2008)
